Values quoted from earlier work in patent publication US8785634B2, “Spiropiperidine prolylcarboxypeptidase inhibitors” (Merck Sharp & Dohme Corp, priority 2010, dated 2014).

How the values were obtained:
[1] = in vivo
[2] = test system: obese, leptin deficient mice; details: systemic administration
rats = details: intracerebroventricular

Row | Molecule | weight loss, of body weight, drug compared to placebo [1] | overnight food intake [2] | overnight food intake (rats)
1 | CCCCCCCCCCC[C@@H](C[C@@H]1OC(=O)[C@H]1CCCCCC)OC(=O)[C@H](CC(C)C)NC=O [orlistat] | 5%-10% |  | 
2 | CC(C)CC(N(C)C)C1(c2ccc(Cl)cc2)CCC1 (stereo not drawn) [sibutramine] | 5%-10% |  | 
3 | CC(C)(N)Cc1ccccc1 [phentermine] | 5%-10% |  | 
4 | CCN[C@@H](C)Cc1cccc(C(F)(F)F)c1 [dexfenfluramine] | 5%-10% |  | 
5 | t-butyl carbamate-prolyl prolinal [BPP] |  | suppression of overnight food intake | suppression of overnight food intake
